Series [1] deals with HT29 human colon cancer cells. The series is described as follows: Microscale chip, HepG2-C3A liver compartment and HT29 target tissue compartment, live/dead fluorescence. Type of series: cell-based. Particulars: 24 hours; for efficacy against HT-29 colon cancer cells (mutant p53) in the chip: chip with HepG2-C3A liver compartment. The source says:
(§1) LIVE/DEAD stain is a two-component stain consisting of calcein AM and ethidium homodimer. Living cells actively hydrolyze the acetoxymethyl ester (AM) moiety of calcein AM to produce bright green fluorescence of calcein. In contrast, cells that have compromised membrane integrity allow the normally membrane impermeant ethidium homodimer to stain the nucleus of dead or dying cells fluorescent red. The cell permeant nuclear stain, Hoechst 33342 acts as a general stain for all cells. Together with the appropriate filter sets, living cells fluoresce green, dying or dead cells red, and all cells are quantified by a blue nuclear fluorescence. For experiments described herein, trypan blue was used at 0.2% (w/v), calcein AM at 1:20,000, propidium iodide at 1:5,000, and Hoechst 33342 at 10 μg/ml. Cells were visualized with a M2Bio stereofluorescence microscope (Zeiss). All experiments were repeated at least three times and measurements done in triplicate.

Series [2] deals with HCT-116 human colon cancer cells. Particulars: for cell death of HCT-116 cells, chip seeded with HCT-116 cells only: no cells in the liver compartment, 24 hours. The protocol:
FIG. 16 Tegafur dose response. […] The chips were treated with indicated concentrations of tegafur for 24 hours. The first graph (FIG. 16A) is a plot of percentage dead cells vs. tegafur or 5-FU concentration after 24 hours of re-circulation on the chip. The second graph (FIG. 16B) is a similar dose response using a traditional in vitro cell culture assay with HCT 116 cells using a 48 hour exposure. HCT-116 cells were seeded on poly-lysine treated glass coverslips and exposed to either tegafur or 5-FU at the indicated concentrations. After a 48 hr incubation, coverslips were treated as described above and the percentage of cell death was determined.
as §1
[…] Tegafur was added to the re-circulating medium at various concentrations for 24 hours and the cells labeled with Hoechst 33342, a membrane permeable DNA dye, and ethidium homodimer, a membrane impermeable DNA dye (see Methods Section).

For a further series, the system named is HCT-116 cells. Briefly: Traditional in vitro cell culture assay, HCT-116 on poly-lysine treated glass coverslips. Type of series: cell-based, human. Particulars: for cytotoxicity to HCT-116 cells, traditional cell culture assay: 48 hr incubation. As to the method:
FIG. 16 Tegafur dose response. Chips were seeded with HepG2-C3A cells in the liver compartment and HCT-116 colon cancer cells in the target tissues compartment. The chips were treated with indicated concentrations of tegafur for 24 hours. The first graph (FIG. 16A) is a plot of percentage dead cells vs. tegafur or 5-FU concentration after 24 hours of re-circulation on the chip. The second graph (FIG. 16B) is a similar dose response using a traditional in vitro cell culture assay with HCT 116 cells using a 48 hour exposure. HCT-116 cells were seeded on poly-lysine treated glass coverslips and exposed to either tegafur or 5-FU at the indicated concentrations. After a 48 hr incubation, coverslips were treated as described above and the percentage of cell death was determined.
To measure the cytotoxic effects of tegafur against colon cancer cells, the microscale chip was prepared with HepG2-C3A cells in the liver compartment and HCT-116 human colon cancer cells in the target tissue compartment. Tegafur was added to the re-circulating medium at various concentrations for 24 hours and the cells labeled with Hoechst 33342, a membrane permeable DNA dye, and ethidium homodimer, a membrane impermeable DNA dye (see Methods Section).

In series [3] the test system is HepG2/C3A cells. Briefly: LIVE/DEAD assay on poly-D-lysine treated glass coverslips. Particulars: 1 μM, 24 hours. Type of series: cell-based, human.
Source text: as §1
The LIVE/DEAD assay was optimized (see Methods section) using cells grown on glass coverslips. Briefly, HepG2/C3A cells were seeded onto poly-D-lysine treated glass coverslips and treated with and without 1 μM staurosporine for 24 hours. […]

In series [4] the test system is HCT116 cells. The series is described as follows: LIVE/DEAD cytotoxicity assay on microscale chip system. Particulars: 1 μM, 24 hour treatment, compared to untreated control cell chips. Type of series: cell-based, human.
Source text: as §1
Two different assays to detect apoptosis were investigated. The first assay was the immunofluorescence-based terminal deoxynucleotidyl transferase BrdU nick end labeling (TUNEL) technique available in kit form as APOPTAG™ (Intergen Co., MA) (see Methods section).

Series [5] relates to HepG2/C3A cells. Briefly: APOPTAG (TUNEL) apoptosis assay on glass coverslips. Type of series: cell-based, human. Particulars: 1 μM, 24-hour incubation, compared to untreated controls. The source says: (§2) In contrast to annexin V labeling, the APOPTAG™ kit (Intergen Co., MA) uses terminal deoxynucleotidyl transferase to label free 3′-OH DNA termini exposed during apoptotic DNA degradation and visualization using immunofluorescence (Li, X., Traganos, F., Melamed, M. R., and Darzynkiewicz, Z. (1995). Single-step procedure for labeling DNA strand breaks with flourescein-or BODIPY-conjugated deoxynucleotides: detection of apoptosis and bromodeoxyuridine incorporation. Cytometry 20, 172-180). Although this method is highly specific for apoptosis, the procedure cannot be done on-chip due to the fixation and incubation steps. Briefly, microscale chips were run under specified experimental conditions, the cell chips were removed from their housing units, fixed in 1% paraformaldehyde and processed with the APOPTAG™ kit using the manufacturer's protocol.
(§3) Two different assays to detect apoptosis were investigated. The first assay was the immunofluorescence-based terminal deoxynucleotidyl transferase BrdU nick end labeling (TUNEL) technique available in kit form as APOPTAG™ (Intergen Co., MA) (see Methods section). The assay was first optimized using cells grown on glass coverslips. Briefly, HepG2/C3A cells were seeded onto poly-D-lysine treated glass coverslips and treated with and without staurosporine. Coverslips were processed as described (see Methods section). […]

Series [6] has as its system HCT116 cells. Briefly: APOPTAG (TUNEL) apoptosis assay on microscale chip system. Type of series: cell-based, human. Particulars: 1 μM, 24 hour exposure, compared to untreated controls.
Source text: as §2, §3

In series [7] the test system is HepG2/C3A cells in the liver compartment and HCT116 cells in the target tissues compartment. Briefly: Annexin V-FITC apoptosis assay on microscale chip system. Particulars: 1 μM, 6-hour treatment, compared to untreated control cell chips. Type of series: cell-based, human.
Description: With the microscale chip, annexin V-FITC labeling was visualized directly on-chin, by first flushing the system with PBS, then recirculating annexin V-FITC (10 μg/ml in annexin V binding buffer, Clontech) for 30 min. Cells were then visualized directly using a FITC filter set.
The annexin V-FITC was used to detect apoptosis in the microscale chip system as described in the Methods section. Briefly, the microscale chip cell chips were seeded with HepG2/C3A cells in the liver compartment and HCT116 cells in the target tissues compartment. Cell chips were loaded onto the microscale chip system and treated with and without 1 μM staurosporine as described above. After a 6-hour incubation, the re-circulating medium was switched to PBS containing Annexin V-FITC and Hoechst 33342 and allowed to flow through the system for 30 minutes. Cell chips were removed from the acrylic housing and visualized under a fluorescent microscope. Cells were visualized under a fluorescent microscope and fluorescent images of identical fields were obtained using the appropriate filter sets.

The structures appear in SMILES notation. Entries after “also recorded” stand apart in the source; their conditions may differ.

Turning to `O=c1[nH]c(=O)n(C2CCCO2)cc1F` (stereo not drawn) [Tegafur, 5-fluoro-1-(2-tetrahydrofuryl)-2,4(1H,3H)-pyrimidinedione], in series [1], the “efficacy against HT-29 colon cancer cells (mutant p53) in the chip” value is reported as “ineffective”. In addition, in series [2], the “cytotoxicity to HCT-116 cells in the microscale chip” value is on record as “cytotoxic to HCT-116 cells in a dose-dependent fashion”; the “exposure at which cytotoxicity was observed, microscale chip” value amounted to 24 h; the “cell death of HCT-116 cells, chip seeded with HCT-116 cells only” value is “did not cause significant cell death”. Besides, in the series with HCT-116 cells, the “cytotoxicity to HCT-116 cells, traditional cell culture assay” value is given as “ineffective”.
Take `CN[C@@H]1C[C@H]2O[C@@](C)([C@@H]1OC)n1c3ccccc3c3c4c(c5c6ccccc6n2c5c31)C(=O)NC4` [Staurosporine]: the “cell death of HepG2/C3A cells (LIVE/DEAD)” value with HepG2/C3A cells [3] was “clearly cause cell death”. Besides, the “cell death of HCT116 cells (LIVE/DEAD) on chip” value in the series with HCT116 cells [4] was “Significant cell death; also recorded: significant apoptosis (or cytotoxicity)”. In addition, the “apoptosis of HepG2/C3A cells (APOPTAG)” value with HepG2/C3A cells [5] was “significant apoptosis”. The “apoptosis of HCT116 cells (APOPTAG) on chip” value with HCT116 cells [6] is “significant apoptosis (or cytotoxicity)”. In addition, the “apoptosis (annexin V-FITC) on chip” value in series [7] is recorded as “significant apoptosis”.
Take `O=c1[nH]cc(F)c(=O)[nH]1` [5-FU, 5-fluorouracil]: in series [2], the “cell death of HCT-116 cells, chip seeded with HCT-116 cells only” value is recorded as “caused substantial cell death”. In the series on HCT-116 cells, the “exposure at which cytotoxicity was observed, traditional cell culture assay” value amounted to 48 h and the “cytotoxicity to HCT-116 cells, traditional cell culture assay” value was “triggered cell death”.
Consider `CC1=C(CC(=O)O)c2cc(F)ccc2/C1=C\c1ccc([S+](C)[O-])cc1` (stereo not drawn) [Sulindac, sulindac sulfoxide], for which, in series [1] (One hundred micromoles in re-circulating medium, absence of the HepG2-C3A liver cells), the “cell death of HT29 cells in the chip” value is given as “minimal levels of cell death”. In series [1], the “efficacy against HT-29 colon cancer cells (mutant p53) in the chip” value is on record as “effective”.

For the origin of these results see patent US20080064088A1, “DEVICES AND METHODS FOR PHARMACOKINETIC-BASED CELL CULTURE SYSTEM” (priority 2006, published 2008).
